In paper PMC7835950 (Frontiers in Chemistry, 2021):
Several values for one entry are separate records, joined by “and”; a condition that tells them apart may be missing. Equal values may be shown once.

Columns and labels:
[1] = Stability of the phosphonates and their esters during storage, by NMR; type: physicochemical; settings: for decrease of purity: pure oil, room temperature, argon atmosphere, 6 months
Description: Stability of the purified phosphonates and their esterified precursor was analyzed by NMR after storage under the inert (pure argon) or ambient (air) atmosphere and in water solutions. ^1H, ^13C and ^31P NMR spectra were recorded at 400, 100.6, and 161.9 MHz, respectively with a Bruker Avance 400 spectrometer. Chemical shifts were calculated using D2O or CDCl3 as reference standards for trisodium salts and triesters, respectively. The spectra of the phosphonates and their esters before and after storage are shown in Supplementary Figures 1, 2 correspondingly.

[2] = substrate: O=C(O)CCCC(=O)C(=O)O; test: OADH reaction catalyzed by the enzyme preparation from rat liver, low [OA] (high-affinity OA sites); type: biochemical; settings: other: liver preparation, pH 7.0
Description: (§1) Enzymes catalyzing OGDH and OADH reactions were enriched from rat hearts and livers using polyethylene glycol precipitation, as previously described (Artiukhov et al., [2020]).
(§2) The enzyme activities were assayed in the medium (pH 7.0) containing 50 mM MOPS, 1 mM ThDP, 1 mM MgCl2, 1 mM CaCl2, 1 mM dithiothreitol 0.15 mM Coenzyme A, 0.25 mM NAD^+ and various concentrations of 2-oxo substrates (0–10 mM OG or OA) and their phosphonate analogs (0–5,000 μM SP, GP, or AP). Reactions were started by addition of the enzyme preparations to the assay media. The amount of enzyme preparations (0.074 mg protein for the preparation from liver and 0.023 mg protein for the preparation from heart) were chosen to induce the lowest reliably measured reaction rate (ΔA340 = 0.001/min) at 0.01 mM OA without the phosphonates.
(§3) Reaction rates were calculated from linear parts of the product accumulation curves (up to 10 min, dependent on the reaction rate), excluding the initial region, where mixing the reagents and solubilization of the preparation affected the optical density. […]
(§4) The kinetic data were also analyzed by linear regression, using the known methods of the linearization of the Michaelis-Menten equation in the Lineweaver-Burk ( 1/a=1/Amax(1+Km/[S]) ) and Eadie-Hofstee ( a=Amax−Kmv/[S] ) coordinates. […]

[3] = substrate: O=C(O)CCCC(=O)C(=O)O; test: OADH reaction (OA saturation) catalyzed by the enzyme preparation from rat heart; type: biochemical; settings: other: heart preparation; pH 7.0
Description: as §1, §2, §3, §4

[4] = substrate: O=C(O)CCCC(=O)C(=O)O; test: OADH reaction catalyzed by the enzyme preparation from rat liver, high [OA] (low-affinity OA sites); type: biochemical; settings: other: liver preparation, pH 7.0
Description: as §1, §2, §3, §4

[5] = substrate: O=C(O)CCC(=O)C(=O)O; test: purified protein, by the assay type; settings: pH 7.0
[6] = 0.2 M aqueous solution, 5 days of shelf storage, 31P NMR

For `CCOC(=O)CCC(=O)P(=O)(OCC)OCC` [TESP, triethyl succinyl phosphonate], the decrease of purity [1] was 4–6%.

In the case of `COC(=O)CCCCC(=O)P(=O)(OC)OC` [TMAP, trimethyl adipoyl phosphonate], the compound decomposed [1, 6] is reported as 90% and the decrease of purity [1] is reported as 4–6%.

In the case of `CCOC(=O)CCCC(=O)P(=O)(OCC)OCC` [TEGP, triethyl glutaryl phosphonate], the compound preserved [1, 6] is reported as “about 80%” and the decrease of purity [1] is reported as 4–6%.

B1: OADH (Rattus norvegicus) (protein)
chain: MASATVAAAGRALRRAVPLLRRSYQTERGVYGYRPRKAGSGEPRGDRARPSVDHGLARLVTVYCEHGHKAAQINPLFPGQALLDTVPEIQALVQTLQGPFTTTGLLNMGKEEASLEEVLAYLNHIYCGPISIETAQLQSQEEKDWFARRFEELKKETFTTEERKHLSKLLLESQEFDHFLATKFATVKRYGGEGAESMMGFFHELLKLSAYGGITDIIIGMPHRGRLNLLTGLLQLPPELMFRKMRGLSEFPENVAAIGDVLSHLTSSVDLDFGAHRPLHVTMLPNPSHLEAINPVAVGKTRGRQQSQEDGDYSPNGSAQPGDKVICLQVHGDASFCGQGIVLETFTLSNLPHFRIGGSIHLIVNNQLGYTTPAERGRSSLYSSDIGKLVGCAIIHVNGDSPEEVVRATRLAFEYQRQFRKDVIIDLLCYRQWGHNELDEPFFTNPVMYKIIRARKSIPDTYAEHLIASGLMTQEEVSDIKASYYAKLNGHLANVAHYSPPAPHLQARWQGLVQPAACVTTWDTGVPLELLRFVGVKSVEVPEELQLHSHLLKMYVQSRMEKVKNGTNLDWATAETLALGSLLAQGFNVRLSGQDVGRGTFSQRHAMVVCQNTDDVYIPLNHMDPNQKGFLEVSNSPLSEEAVLGFEYGMSIESPKLLPLWEAQFGDFFNGAQIIFDTFISGGEAKWLLQSGLVILLPHGYDGAGPDHSSCRIERFLQMCDSAEEGVDSDTVNMFVVHPTTPAQYFHLLRRQMMRNFRKPLIVASPKMLLRYPVAVSTLEEMAPGTAFKPVIGDSSVDPKNVKTLIFCSGKHFYALLKQRESLGAKKRDFAIIRLEELCPFPLDSLQQEMGKYKHVQDIIWSQEEPQNMGPWSFVYPRFEKQLACKLRLVSRPPLPAPAVGIGTVHQQQHEAILFKTFTS
For B1, the Km [2] was 8 ± 1 µM and 7.7 ± 0.8 µM.

B2: OGDH (Rattus norvegicus) (protein)
chain: SAPVAAEPFLSGTSSNYVEEMYCAWLENPKSVHKSWDIFFRNTNAGAPPGTAYQSPLSLSRSSLATMAHAQSLVEAQPNVDKLVEDHLAVQSLIRAYQIRGHHVAQLDPLGILDADLDSSVPADIISSTDKLGFYGLHESDLDKVFHLPTTTFIGGQEPALPLREIIRRLEMAYCQHIGVEFMFINDLEQCQWIRQKFETPGIMQFTNEEKRTLLARLVRSTRFEEFLQRKWSSEKRFGLEGCEVLIPALKTIIDMSSANGVDYVIMGMPHRGRLNVLANVIRKELEQIFCQFDSKLEAADEGSGDMKYHLGMYHRRINRVTDRNITLSLVANPSHLEAADPVVMGKTKAEQFYCGDTEGKKVMSILLHGDAAFAGQGIVYETFHLSDLPSYTTHGTVHVVVNNQIGFTTDPRMARSSPYPTDVARVVNAPIFHVNSDDPEAVMYVCKVAAEWRNTFHKDVVVDLVCYRRNGHNEMDEPMFTQPLMYKQIRKQKPVLQKYAELLVSQGVVNQPEYEEEISKYDKICEEAFTRSKDEKILHIKHWLDSPWPGFFTLDGQPRSMTCPSTGLEEDILTHIGNVASSVPVENFTIHGGLSRILKTRRELVTNRTVDWALAEYMAFGSLLKEGIHVRLSGQDVERGTFSHRHHVLHDQNVDKRTCIPMNHLWPNQAPYTVCNSSLSEYGVLGFELGFAMASPNALVLWEAQFGDFNNMAQCIIDQFICPGQAKWVRQNGIVLLLPHGMEGMGPEHSSARPERFLQMCNDDPDVLPNLQEENFDISQLYDCNWIVVNCSTPGNFFHVLRRQILLPFRKPLIVFTPKSLLRHPEARTSFDEMLPGTHFQRVIPEDGPAAQNPDKVKRLLFCTGKVYYDLTRERKARDMAEEVAITRIEQLSPFPFDLLLKEAQKYPNAELAWCQEEHKNQGYYDYVKPRLRTTIDRAKPVWYAGRDPAAAPATGNKKTHLTELQRFLDTAFDLDAFKKFS
notes: the tissue fractions with the complexes enriched to a degree allowing for a robust detection of the enzymatic activities, have been used; from tissue; host or cells: rat liver
B2 gave a Km [3] of 550 ± 70 µM, a Km [4] of 450 ± 120 µM and a Km ([5]; other: heart preparation) of 450 ± 60 µM. It also gave a Km ([5]; other: liver preparation) of 270 ± 60 µM.
